Assay results taken from PMC3047498 (Journal of andrology, 2010).

Tests used:
[1] = tested on: endogenous testosterone production; test: Suppression of endogenous testosterone production by acyline; type: in vivo, men; conditions: 300 µg/kg acyline; for Serum testosterone concentration 24 hours after acyline administration: before oral testosterone
[2] = tested on: endogenous testosterone production; conditions: 300 µg/kg acyline, normal healthy men; ref Herbst et al, 2004; cited from earlier work
[3] = testosterone plus finasteride group

Substance: acyline
- Serum DHT concentration 24 hours after the acyline injection [1, 3]: 0.54 ± 0.32 nmol/L
- Serum testosterone concentration 24 hours after acyline administration [1, 3]: 2.3 ± 1.4 nmol/L
- Serum DHT concentration 24 hours after the acyline injection ([1]; testosterone-only group): 0.6 ± 0.32 nmol/L
- Serum testosterone concentration 24 hours after acyline administration ([1]; testosterone-only group): 2.0 ± 1.3 nmol/L
- Duration of testosterone suppression [2]: 2 weeks
- Time to suppress testosterone to castrate levels [2]: ≤ 24 h
